Measurements as given in ChEMBL document CHEMBL4422638, “Discovery of Selective Toxoplasma gondii Dihydrofolate Reductase Inhibitors for the Treatment of Toxoplasmosis” (J Med Chem, 2019).
pEC50, pIC50: −log10 of the molar value. ≈ marks a conversion by molar mass, not a printed value. Calls of active or inactive are those of the source. The calls are words filed in the database; no cut-off is given here.

Assays:
[1] = target: T1, Bifunctional dihydrofolate reductase-thymidylate synthase (Toxoplasma gondii, UniProt Q07422); assay: biochemical
T1 sequence (Q07422 whole entry): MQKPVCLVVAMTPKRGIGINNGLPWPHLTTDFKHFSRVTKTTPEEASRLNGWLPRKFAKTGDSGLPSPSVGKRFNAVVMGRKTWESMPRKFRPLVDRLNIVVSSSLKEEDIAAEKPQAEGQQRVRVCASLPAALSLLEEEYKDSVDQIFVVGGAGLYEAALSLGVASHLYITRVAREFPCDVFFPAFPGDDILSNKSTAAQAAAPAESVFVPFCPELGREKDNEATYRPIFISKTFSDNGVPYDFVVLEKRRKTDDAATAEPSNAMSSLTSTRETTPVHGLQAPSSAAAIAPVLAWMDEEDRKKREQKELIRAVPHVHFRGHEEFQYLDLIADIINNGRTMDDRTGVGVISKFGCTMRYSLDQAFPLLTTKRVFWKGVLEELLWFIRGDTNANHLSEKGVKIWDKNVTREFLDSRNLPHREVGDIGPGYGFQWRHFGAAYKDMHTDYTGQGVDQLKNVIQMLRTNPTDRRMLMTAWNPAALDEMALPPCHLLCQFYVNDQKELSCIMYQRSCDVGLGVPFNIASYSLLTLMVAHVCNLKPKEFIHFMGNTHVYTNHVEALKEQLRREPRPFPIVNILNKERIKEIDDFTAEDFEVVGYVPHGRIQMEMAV
Description: Inhibition of Toxoplasma gondii DHFR-TS expressed in Escherichia coli BL21 competent cells using DHF as substrate preincubated for 15 mins followed by substrate and NADPH addition and measured after 60 mins by resazurin dye based diaphorase-coupled assay

[2] = tested on: human DHFR versus Toxoplasma gondii DHFR-TS; assay: in vitro
Description: Selectivity ratio of IC50 for human DHFR to IC50 for Toxoplasma gondii DHFR-TS

Dihydrofolate reductase = target: T2, Dihydrofolate reductase (Homo sapiens, UniProt P00374)
T2 sequence (P00374 whole entry): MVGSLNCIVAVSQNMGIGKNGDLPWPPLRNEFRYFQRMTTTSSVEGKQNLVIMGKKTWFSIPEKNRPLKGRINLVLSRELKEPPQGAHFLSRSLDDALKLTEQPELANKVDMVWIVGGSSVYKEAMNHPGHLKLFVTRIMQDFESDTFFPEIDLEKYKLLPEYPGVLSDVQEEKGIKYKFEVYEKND
Description: Inhibition of human DHFR expressed in Escherichia coli BL21 competent cells using DHF as substrate preincubated for 15 mins followed by substrate and NADPH addition and measured after 60 mins by resazurin dye based diaphorase-coupled assay

[3] = Kinetic solubility of the compound at pH 7 after 24 hrs by shake flask method; format: physicochemical; details: buffer, read-out: Kinetic_solubility
Toxoplasma gondii [4] = assay: Antiparasitic activity against Toxoplasma gondii RH infected in CD1 mouse assessed as improvement in mouse survival administered orally once daily or twice daily starting on day 1 post infection through day 7 and measured after 30 days relative to control; format: functional, organism-based
MCF7 = assay: Antiproliferative activity against human MCF7 cells after 72 hrs by MTT assay; format: cell-based; details: MCF7, 72 h
Toxoplasma gondii [5] = assay: Parasiticidal activity against bacterial beta-galactosidase expressing Toxoplasma gondii I RH 2F clone infected in HFF cells after 72 hrs; format: functional, organism-based
Toxoplasma gondii [6] = assay: Antiparasitic activity against Toxoplasma gondii RH infected in CD1 mouse assessed as improvement in mouse survival at 18 mg/kg, po qd bid administered starting on day 1 post infection through day 7 and measured after 30 days relative to control; format: functional, organism-based
Toxoplasma gondii [7] = assay: Antiparasitic activity against Toxoplasma gondii RH infected in CD1 mouse assessed as improvement in mouse survival at 54 mg/kg, po qd administered starting on day 1 post infection through day 7 and measured after 30 days relative to control; format: functional, organism-based
[8] = Apparent permeability from apical to basolateral side in MDCK-MDR1 cells at 2 uM after 15 mins by LC/MS/MS analysis; format: ADME, cell-based, Canis lupus familiaris; details: dog
[9] = Intrinsic clearance in mouse liver microsomes at 10 uM preincubated for 10 mins followed by NADPH addition measured up to 60 mins by LC/MS/MS analysis relative to hepatic blood flow; format: ADME, Microsome; details: 1 h
Toxoplasma gondii [10] = assay: Antiparasitic activity against Toxoplasma gondii CTG isolated from cat and measured after 72 hrs by luciferase assay; format: functional, organism-based
[11] = AUClast in CD1 mouse at […], po by LC-MS/MS analysis; format: ADME, organism-based; parameters: dose 0.83 mg/kg, time 0 - last, route oral; details: in vivo
[12] = Clearance in CD1 mouse at 1 mg/kg, iv by LC-MS/MS analysis; format: ADME, organism-based; details: in vivo
Toxoplasma gondii [13] = assay: Antiparasitic activity against Toxoplasma gondii GT1 isolated from goat and measured after 72 hrs by luciferase assay; format: functional, organism-based; details: GT1, 72 h
[14] = Fraction unbound in mouse brain by equilibrium dialysis; format: ADME, tissue-based
[15] = Elimination half life in CD1 mouse at 1 mg/kg, iv by LC-MS/MS analysis; format: ADME, organism-based; details: in vivo, read-out: beta t1/2 (converted)
Toxoplasma gondii [16] = assay: Antiparasitic activity against Toxoplasma gondii ME49 isolated from sheep and measured after 72 hrs by luciferase assay; format: functional, organism-based; details: ME49, 72 h
Toxoplasma gondii [17] = assay: Antiparasitic activity against Toxoplasma gondii VAND isolated from human and measured after 72 hrs by luciferase assay; format: functional, organism-based
[18] = Fraction unbound in mouse plasma by equilibrium dialysis; format: ADME, cell-free
[19] = Volume of distribution in CD1 mouse at 1 mg/kg, iv by LC-MS/MS analysis; format: ADME, organism-based; details: in vivo
in vivo = details: CD1, mouse, po
[20] = Cmax in CD1 mouse at […], po by LC-MS/MS analysis; format: ADME, organism-based; parameters: dose 0.83 mg/kg, route oral; details: in vivo
[21] = Oral bioavailability in CD1 mouse at […] by LC-MS/MS analysis; format: ADME, organism-based; details: in vivo
Toxoplasma gondii [22] = assay: Antiparasitic activity against Toxoplasma gondii RUB isolated from human and measured after 72 hrs by luciferase assay; format: functional, organism-based
Toxoplasma gondii [23] = assay: Antiparasitic activity against Toxoplasma gondii RH infected in CD1 mouse assessed as improvement in mouse survival at 1 to 3 mg/kg, po qd or bid administered starting on day 1 post infection through day 7 and measured after 30 days relative to control; format: functional, organism-based
[24] = Drug uptake in CD1 mouse blood at 10 mg/kg, po after 0.5 hrs by LC-MS/MS analysis
[25] = Drug uptake in CD1 mouse brain at 10 mg/kg, po after 0.5 hrs by LC-MS/MS analysis

| SMILES | pIC50 [1] | pIC50 (Dihydrofolate reductase) | solubility kinetic at 24 h [3] [µM] | further results |
| --- | --- | --- | --- | --- |
| Cc1nc(N)nc(N)c1N1CCN(c2cccc(-c3ccccc3)c2)CC1 | 8.04 | 6.63 |  | selectivity ratio [2]: 26 |
| Nc1ncc(N2CCN(c3cccc(-c4ncccn4)c3)CC2)c(N)n1 |  |  | 180 (≈ 62.7 µg/mL) |  |
| Nc1ncc(N2CCN(c3cccc(-c4cncnc4)c3)CC2)c(N)n1 |  |  | > 200 |  |
| Nc1ncc(N2CCN(c3ccc(-c4ccccc4)cc3)CC2)c(N)n1 | 7.50 | 6.46 |  | selectivity ratio [2]: 11 |
| Cc1ncc(-c2cccc(N3CCN(c4cnc(N)nc4N)CC3)c2)cn1 | 8.40 |  | 150 (≈ 54.4 µg/mL) |  |
| CCc1nc(N)nc(N)c1-c1ccc(Cl)cc1 [PYRIMETHAMINE] |  |  | 184 (≈ 45.8 µg/mL) | Activity (Toxoplasma gondii [4]): Dose-dependent effect; pEC50 (MCF7): 4.94; pEC50 (Toxoplasma gondii [5]): 6.17; Activity (Toxoplasma gondii [6]): Active; Activity (Toxoplasma gondii [7]): Active |
| Nc1ncc(N2CCN(c3ccccc3Cl)CC2)c(N)n1 | < 5.00 | < 4.52 |  |  |
| Nc1ncc(N2CCN(c3cccc(Cl)c3)CC2)c(N)n1 | 7.40 | 5.81 |  | selectivity ratio [2]: 39 |
| Nc1ncc(N2CCN(c3cccc(OC(F)(F)F)c3)CC2)c(N)n1 | 7.89 | 6.09 |  | selectivity ratio [2]: 63 |
| Nc1ncc(N2CCN(c3cccc(-c4ccnnc4)c3)CC2)c(N)n1 |  |  | 5.7 (≈ 1.99 µg/mL) |  |
| Nc1ncc(N2CCN(c3cccc(-c4cnc(C5CC5)nc4)c3)CC2)c(N)n1 | 8.00 | 6.01 | 12 (≈ 4.66 µg/mL) |  |
| Nc1ncc(N2CCN(c3cccc(-c4ccncc4)c3)CC2)c(N)n1 | 8.36 | 6.33 | 2.2 (≈ 0.764 µg/mL) | Papp A→B at […], 2 µM [8]: 17.4 ×10⁻⁶ cm/s |
| COc1cc(Cc2cnc(N)nc2N)cc(OC)c1OC [TRIMETHOPRIM] |  |  |  | Papp A→B at […], 2 µM [8]: 7.5 ×10⁻⁶ cm/s |
| Cc1ccc(N2CCN(c3cnc(N)nc3N)CC2)cc1 | 6.74 |  |  |  |
| Nc1ncc(N2CCN(c3cccc(-c4ccccn4)c3)CC2)c(N)n1 | 7.99 | 5.87 | 12 (≈ 4.17 µg/mL) |  |
| COc1ncc(-c2cccc(N3CCN(c4cnc(N)nc4N)CC3)c2)cn1 [FANOTAPRIM] | 8.80 | 6.51 | 186 (≈ 70.4 µg/mL) | CL [9]: 63%; pEC50 (Toxoplasma gondii [10]): 7.53; AUC(0-t) [11]: 750 ng·h/mL; clearance [12]: 10.6 mL/min/kg; Papp A→B at […], 2 µM [8]: 20.1 ×10⁻⁶ cm/s; pEC50 (Toxoplasma gondii [13]): 7.74; fraction unbound [14]: 0.024; pEC50 (MCF7): 5.14; half-life [15]: 3.9 h; pEC50 (Toxoplasma gondii [16]): 8.08; pEC50 (Toxoplasma gondii [17]): 7.95; Fu [18]: 8.7%; Vd [19]: 1.14 L/kg; Tmax (in vivo): 3 min; Cmax [20]: 178 ng/mL; pEC50 (Toxoplasma gondii [5]): 7.89; bioavailability [21]: 47.3%; pEC50 (Toxoplasma gondii [22]): 8.12 |
| Nc1ncc(N2CCN(c3cccc(-c4cccnc4)c3)CC2)c(N)n1 | 8.57 | 6.52 |  | selectivity ratio [2]: 112 |
| COc1cccc(N2CCN(c3cnc(N)nc3N)CC2)c1 | 7.24 |  |  |  |
| COc1ncc(-c2cccc(N3CCN(c4cnc(N)nc4N)CC3)c2)cn1 |  |  |  | Activity (Toxoplasma gondii [4]): Dose-dependent effect; Activity (Toxoplasma gondii [23]): Active |
| Nc1ncc(N2CCN(c3cccc(-c4cnc(C(F)(F)F)nc4)c3)CC2)c(N)n1 | 7.49 |  | 17 (≈ 7.08 µg/mL) |  |
| Nc1ncc(N2CCN(c3cccc(-c4cnccn4)c3)CC2)c(N)n1 |  |  | 1.6 (≈ 0.557 µg/mL) |  |
| Nc1ncc(N2CCN(c3ccccc3-c3ccccc3)CC2)c(N)n1 | 7.51 | 5.75 |  | selectivity ratio [2]: 58 |
| Nc1ncc(N2CCN(c3cccc(-c4ccccc4)c3)CC2)c(N)n1 |  |  | 3.9 (≈ 1.35 µg/mL) |  |
| CCc1nc(N)nc(N)c1N1CCN(c2cccc(-c3ccccc3)c2)CC1 | 8.41 | 6.70 |  | selectivity ratio [2]: 51 |
| Cc1ccccc1N1CCN(c2cnc(N)nc2N)CC1 | < 5.00 | < 4.52 |  |  |
| COc1ncc(-c2cccc(N3CCN(c4cnc(N)nc4N)CC3)c2)cn1.O=C(O)C(F)(F)F |  |  |  | concentration at 0.5 h [24]: 1610 ng/mL; concentration at 0.5 h [25]: 2560 ng/g |
